Measured values reported in patent publication US9120728B2, “Modulators of cortical dopaminergic- and NMDA-receptor-mediated glutamatergic neurotransmission” (INTEGRATIVE RESEARCH LABORATORIES SWEDEN AB, priority 2011, dated 2015).

Experiments:
MK-801 pre-treated rats = assay: Reduction of MK-801-induced hyper-locomotion; assay type: in vivo; details: Rattus norvegicus; MK-801 0.7 mg/kg i.p. 90 minutes before test compound; locomotor activity between 45 and 60 minutes after administration; 0-100 μmol/kg s.c.
From the text: Reduction of MK-801-Induced Hyper-Locomotion Another animal model of antipsychotic activity is based on administration of the glutamate antagonist MK-801. Glutamate antagonists (i.e. NMDA antagonists), can induce psychoses in man (see Psychopharmacology, 4th Generation of progress Chapter 101, p. 1205 and 1207) and induce behavioural aberrations in animals. Thus, the ability of a drug to affect schizophrenia and psychotic states can be measured using behavioural models based on experimentally-induced hypoglutamatergic states. In this study the NMDA antagonist MK-801 (0.7 mg/kg i.p.) was used to create a hypoglutamatergic state where the rats display abnormal, hyperactive behaviour.
Behavioural activity is measured using eight Digiscan activity monitors (RXYZM (16) TAO, Omnitech Electronics, Columbus, Ohio, USA), connected to an Omnitech Digiscan analyzer and an Apple Macintosh computer equipped with a digital interface board (NB DIO-24, National Instruments, USA). […]
Behavioural data from each activity monitor, representing the position (horizontal center of gravity and vertical activity) of the animal at each time, are recorded at a sampling frequency of 25 Hz and collected using a custom written LABView™ application. The data from each recording session are stored and analyzed with respect to distance traveled. […]

drug-naive rats = assay: Effects on spontaneous locomotion (locomotor activity in drug-naive rats); assay type: in vivo, rat; details: recorded for 60 minutes immediately after drug administration
Description: Prior art dopamine receptor antagonists are known to induce profound decrease in locomotor activity (catalepsy).
Behavioural activity is measured using eight Digiscan activity monitors (RXYZM (16) TAO, Omnitech Electronics, Columbus, Ohio, USA), connected to an Omnitech Digiscan analyzer and an Apple Macintosh computer equipped with a digital interface board (NB DIO-24, National Instruments, USA). Each activity monitor consists of a quadratic metal frame (W×L=40 cm×40 cm) equipped with photobeam sensors. During measurements of behavioural activity, a rat is put in a transparent acrylic cage (WxLxH, 40×40×30 cm) which in turn is placed in the activity monitor. Each activity monitor is equipped with three rows of infrared photobeam sensors, each row consisting of 16 sensors. Two rows are placed along the front and the side of the floor of the cage, at a 90° angle, and the third row is placed 10 cm above the floor to measure vertical activity. Photobeam sensors are spaced 2.5 cm apart. Each activity monitor is fitted in an identical sound and light attenuating box containing a weak house light and a fan.
The computer software is written using object oriented programming (LabVIEW®, National instruments, Austin, Tex., USA).
Behavioural data from each activity monitor, representing the position (horizontal center of gravity and vertical activity) of the animal at each time, are recorded at a sampling frequency of 25 Hz and collected using a custom written LABView™ application. The data from each recording session are stored and analyzed with respect to distance traveled. Each behavioural recording session lasts 60 min, starting approximately 4 min after the injection of test compound. Similar behavioural recording procedures are applied for drug-naïve and drug pre-treated rats. Rats pre-treated with d-amphetamine are given a dose of 1.5 mg/kg i.p. 10 min before the recording session in the activity monitor. Rats pre-treated with MK-801 are given a dose of 0.7 mg/kg i.p. 90 min before the recording session in the activity monitor. The results are presented as counts/60 minutes, or counts/30 minutes, in arbitrary length units. Statistical comparisons are carried out using Student's t-test against the control group. In MK-801 or amphetamine pre-treated animals, statistical comparisons are made against the MK801 or d-amphetamine controls, respectively.

CCCNCCOc1cc(F)cc(S(C)(=O)=O)c1 [Example 1, N-[2-(3-fluoro-5-methylsulfonyl-phenoxy)ethyl]propan-1-amine]
ED50 (MK-801 pre-treated rats): 5.6 µmol/kg
Locomotor activity (drug-naive rats; 3.7 μmol/kg): 8049 counts/60 min
Locomotor activity (drug-naive rats; 11 μmol/kg): 7325 counts/60 min
Locomotor activity (drug-naive rats; 33 μmol/kg): 6025 counts/60 min
